Like-named read-outs stand apart in the source and are kept apart here.
Experiments:
[1] = test system: IgG fraction of antiserum raised to Immunogen I; type: binding, sheep
Summary of the method: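 Plates were coated with the IgG fraction of sheep antiserum raised to Immunogen I and incubated with standards (JWH-018, 0-40 ng/ml) plus hapten-HRP conjugate for 1 h at 25° C. Detection used TMB, read at 450 nm. IC50 was taken from a 4-parameter fit as the concentration giving half the zero-standard OD.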

[2] = test system: antiserum raised to Immunogen I (Hapten A-BTG); assay: Competitive ELISA microtiter plate assay, antiserum raised to Immunogen I, conjugate Hapten A-HRP (Example 19); type: binding, sheep
Protocol: Aqueous solutions of the immunogens prepared in examples 5 and 13 were formulated with Freund's Complete Adjuvant (FCA) to form emulsions consisting of 2 mg/ml Immunogen I and 2 mg/ml of Immunogen II in 50% (v/v) FCA. Three sheep were immunised with each emulsion (1° immunisations), 0.25 ml being intramuscularly injected at four sites in the rump of each animal. Subsequent immunisations (boosts 2-8) contained 1 mg/ml Immunogen I and 1 mg/ml Immunogen II. All boosts were emulsified in 50% (v/v) Freund's Incomplete Adjuvant (FIA) and administered to the appropriate sheep in the same manner as the 1° immunisations, at monthly intervals. Blood sampling took place 7-14 days after each boost. Each sample was processed to produce antiserum, which was further purified by caprylic acid and ammonium sulphate precipitation to yield an immunoglobulin (Ig) fraction. The Ig fraction was evaluated by competitive ELISA microtiter plate assay, as described in example 19 below.
(a) The wells of an enhanced binding 96 well polystyrene microtiter plate were coated with the Ig fraction of the antiserum raised to Immunogen I (Hapten A-BTG—example 5) and diluted in 10 mM Tris, pH8.5 (125 μl/well). The appropriate antibody coating concentration was determined using standard ELISA checkerboard techniques. The plate was incubated for 2 hours at 37° C., washed 4 times over a 10-minute period with Tris buffered saline containing Tween 20 (TBST) and tapped dry. Standard solutions of JWH synthetic cannabinoids, metabolites and selected molecules were prepared in TBST and 50 μl of each was added to the appropriate wells. 75 μl of conjugate (Hapten A-HRP) diluted in Tris buffer containing EDTA, D-mannitol, sucrose, thimerosal and BSA, was added to each of the wells. The appropriate dilution of conjugate was also determined using standard ELISA checkerboard techniques. The plate was incubated at 25° C. for 1 hour. The excess unbound conjugate was removed by washing 6 times over a 10-minute period with TBST and tapped dry. 125 μl of tetramethylbenzedine (TMB) substrate solution was added to each well of the plate that was then incubated for 15-20 minutes in the dark at room temperature. The reaction was terminated by addition of 125 μl of 0.2M sulphuric acid to each well. The absorbance was then measured at 450 nm using a microtiter plate reader.
Employing each series of standards, calibration curves were generated and these were used to determine the specificity of the immunoassay for the JWH synthetic cannabinoids, metabolites and selected molecules. The results of this study are presented in Tables 1 to 3, cross-reactivity being calculated according to the following formula: % CR=IC50,JWH-018/IC50,CR×100
Where % CR is the percentage cross-reactivity, IC50, JWH-018 is the concentration of JWH-018 that causes 50% displacement of signal and IC50, CR is the concentration of JWH synthetic cannabinoid/metabolite/selected molecule that causes 50% displacement of signal.
(b) In a similar manner to that described in Example 19(a), the wells of a 96 well microtiter plate were coated with the Ig fraction of the antiserum raised to Immunogen I (Hapten A-BTG). Conjugate (Hapten A-HRP) was employed as a detection reagent.
Table 2: Data generated from a competitive microtiter plate assay for JWH synthetic cannabinoids and metabolites, employing antiserum raised to Immunogen I (Hapten A-BTG) and conjugate (Hapten A-HRP) as detection reagent.
(d) The resulting competitive ELISA for synthetic cannabinoids and metabolites was also employed to test for the 5-fluoropentyl derivative of JWH-018, (1-(5-fluoropentyl)indol-3yl (1-naphthyl) methanone (Table 4).

[3] = Antibody to Immunogen I, cross-reactants at 100 ng/ml, 1000 ng/ml, standard JWH-018
[4] = Table 2, CR based on 100% for JWH-018
[5] = Table 2, detecting agent derived from Hapten-A, 40 ng/ml highest concentration tested
[6] = Table 4, Immunogen I, relative to JWH-018

Row | Compound | % B/B0 [1, 3] | % Cross-reactivity [2, 4] | IC50 [2, 5] | also measured
1 | CCCCn1cc(C(=O)c2cccc3ccccc23)c2ccccc21 [JWH-073] | 3.56% | 291.40% | 0.93 ng/mL | –
2 | CCCCCn1cc(C(=O)c2cccc3ccccc23)c2cc(O)ccc21 [5-OH JWH-018, JWH-018 5-hydroxyindole metabolite] | 11.79% | 694.87% | 0.39 ng/mL | binding to the antibody produced from Immunogen I (in words) [2]: able to bind
3 | O=C(c1cccc2ccccc12)c1cn(CCCCCF)c2ccccc12 [AM-2201, 1-(5-Fluoropentyl)indol-3-yl (1-naphthyl) methanone] | 3.72% | – | – | IC50 ([2]; Table 4, Immunogen I): 0.02 ng/mL; % Cross-reactivity [2, 6]: 11500.00%
4 | O=C(O)CCCCn1cc(C(=O)c2cccc3ccccc23)c2ccccc21 [JWH-018 N-pentanoic acid metabolite] | 4.51% | 645.24% | 0.42 ng/mL | –
5 | CCCCCn1cc(C(=O)c2cccc3ccccc23)c2c(O)cccc21 [4-OH JWH-018, JWH-018 4-hydroxyindole metabolite] | 46.39% | 10.62% | 25.51 ng/mL | –
6 | O=C(c1cccc2ccccc12)c1cn(CCCCCO)c2ccccc12 [JWH-018 N-(5-hydroxypentyl) metabolite] | 3.50% | 1505.56% | 0.18 ng/mL | –
7 | O=C(c1cccc2ccccc12)c1cn(CCN2CCOCC2)c2ccccc12 [JWH-200] | 3.51% | 874.19% | 0.31 ng/mL | –
8 | CCCCCn1cc(C(=O)c2ccc(Cl)c3ccccc23)c2ccccc21 [JWH-398] | 60.31% | <<6.78% | >>40 ng/ml | –
9 | CCCCCn1cc(C(=O)c2cccc3ccccc23)c2ccc(O)cc21 [6-OH JWH-018, JWH-018 6-hydroxyindole metabolite] | 8.07% | 132.84% | 2.04 ng/mL | binding to the antibody produced from Immunogen I (in words) [2]: able to bind
10 | O=C(c1cccc2ccccc12)c1c[nH]c2ccccc12 [N-desalkyl JWH-018, 3-(1-naphthoyl)-1H-Indole] | 15.63% | 70.57% | 3.84 ng/mL | –
11 | CCCCCn1cc(C(=O)c2cccc3ccccc23)c2ccccc21 [JWH-018] | 5.19% | 100.00% | 2.71 ng/mL | % B/B0 ([1]; JWH-018 0.625 ng/ml): 77%; % B/B0 ([1]; JWH-018 1.25 ng/ml): 62%; % B/B0 ([1]; JWH-018 2.5 ng/ml): 44%; % B/B0 ([1]; JWH-018 5 ng/ml): 31%; % B/B0 ([1]; JWH-018 10 ng/ml): 20%; % B/B0 ([1]; JWH-018 20 ng/ml): 14%; % B/B0 ([1]; JWH-018 40 ng/ml): 9%; IC50 ([1]; Table 7 standard curve, standard concentration which produces 50% B/B0): 2.016 ng/mL; binding to the antibody produced from Immunogen I (in words) [2]: able to bind; IC50 ([2]; Table 4, Immunogen I): 2.30 ng/mL; % Cross-reactivity [2, 6]: 100.00%
